Test results: patent US20160089371A1, “Combination of Kinase Inhibitors and Uses Thereof” (INTELLIKINE, LLC, priority 2013, published 2016)
pIC50: −log10 of the molar value. Like-named read-outs stand apart in the source and are kept apart here.

Key:
T47D = T47D proliferation; type: cell-based; conditions: Homo sapiens; T47D cell line
PC3 = PC3 proliferation; type: cell-based; conditions: Homo sapiens, PC-3; PC3 cell line (compounds before 438)
PI3K δ = PI3K δ (Homo sapiens, UniProt O00329); assay: PI 3-Kinase (human) HTRF assay, p110δ/p85α
Chain of PI3K δ (O00329 whole entry): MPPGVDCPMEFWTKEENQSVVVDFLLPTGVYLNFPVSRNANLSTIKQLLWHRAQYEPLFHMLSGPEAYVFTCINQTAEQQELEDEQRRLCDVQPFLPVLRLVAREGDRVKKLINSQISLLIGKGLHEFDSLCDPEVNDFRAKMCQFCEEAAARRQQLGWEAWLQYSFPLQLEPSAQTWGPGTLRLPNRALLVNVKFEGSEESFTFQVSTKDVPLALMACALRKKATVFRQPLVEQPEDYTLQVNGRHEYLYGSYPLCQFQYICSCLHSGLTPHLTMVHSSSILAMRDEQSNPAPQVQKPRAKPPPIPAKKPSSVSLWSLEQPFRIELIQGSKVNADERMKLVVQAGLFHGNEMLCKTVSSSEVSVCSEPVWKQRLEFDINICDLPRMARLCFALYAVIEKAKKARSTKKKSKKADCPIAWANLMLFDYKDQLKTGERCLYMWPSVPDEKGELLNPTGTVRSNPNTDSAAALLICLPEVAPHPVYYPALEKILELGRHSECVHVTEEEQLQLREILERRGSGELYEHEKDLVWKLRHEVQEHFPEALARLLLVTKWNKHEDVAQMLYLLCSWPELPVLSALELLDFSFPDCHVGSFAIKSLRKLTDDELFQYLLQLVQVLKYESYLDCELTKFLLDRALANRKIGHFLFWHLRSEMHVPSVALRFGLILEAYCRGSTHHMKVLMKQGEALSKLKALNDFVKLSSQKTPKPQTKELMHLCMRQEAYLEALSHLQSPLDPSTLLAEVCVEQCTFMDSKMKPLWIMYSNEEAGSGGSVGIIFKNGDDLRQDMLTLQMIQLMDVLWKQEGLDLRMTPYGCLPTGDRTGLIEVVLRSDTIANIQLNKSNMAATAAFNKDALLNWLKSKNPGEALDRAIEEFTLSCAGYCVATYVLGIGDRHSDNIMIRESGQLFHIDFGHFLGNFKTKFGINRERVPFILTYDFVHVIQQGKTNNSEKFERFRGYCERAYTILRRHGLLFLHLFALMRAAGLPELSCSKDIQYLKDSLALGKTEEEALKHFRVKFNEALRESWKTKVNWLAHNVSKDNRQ
Chain of PI3K δ (P27986 whole entry partner): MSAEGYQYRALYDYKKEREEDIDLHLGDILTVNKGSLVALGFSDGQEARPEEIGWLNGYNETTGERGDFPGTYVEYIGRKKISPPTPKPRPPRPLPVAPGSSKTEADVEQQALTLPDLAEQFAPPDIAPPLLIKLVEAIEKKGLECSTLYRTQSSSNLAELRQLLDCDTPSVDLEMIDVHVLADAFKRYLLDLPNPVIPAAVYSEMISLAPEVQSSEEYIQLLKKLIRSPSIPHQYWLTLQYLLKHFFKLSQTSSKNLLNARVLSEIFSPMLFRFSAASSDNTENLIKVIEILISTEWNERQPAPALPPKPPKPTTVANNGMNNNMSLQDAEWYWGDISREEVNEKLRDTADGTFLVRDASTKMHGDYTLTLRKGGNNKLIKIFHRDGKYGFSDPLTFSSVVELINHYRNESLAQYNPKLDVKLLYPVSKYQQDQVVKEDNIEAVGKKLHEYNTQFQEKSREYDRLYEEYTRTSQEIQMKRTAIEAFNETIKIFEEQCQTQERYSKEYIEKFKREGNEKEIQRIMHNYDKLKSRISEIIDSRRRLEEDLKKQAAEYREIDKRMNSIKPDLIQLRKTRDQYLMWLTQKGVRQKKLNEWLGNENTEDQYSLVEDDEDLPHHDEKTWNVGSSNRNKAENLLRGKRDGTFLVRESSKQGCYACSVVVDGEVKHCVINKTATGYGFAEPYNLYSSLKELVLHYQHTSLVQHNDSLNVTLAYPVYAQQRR

PI3K γ = PI3K γ (Homo sapiens, UniProt P48736); assay: PI 3-Kinase (human) HTRF assay, p110γ
Chain of PI3K γ (P48736 whole entry): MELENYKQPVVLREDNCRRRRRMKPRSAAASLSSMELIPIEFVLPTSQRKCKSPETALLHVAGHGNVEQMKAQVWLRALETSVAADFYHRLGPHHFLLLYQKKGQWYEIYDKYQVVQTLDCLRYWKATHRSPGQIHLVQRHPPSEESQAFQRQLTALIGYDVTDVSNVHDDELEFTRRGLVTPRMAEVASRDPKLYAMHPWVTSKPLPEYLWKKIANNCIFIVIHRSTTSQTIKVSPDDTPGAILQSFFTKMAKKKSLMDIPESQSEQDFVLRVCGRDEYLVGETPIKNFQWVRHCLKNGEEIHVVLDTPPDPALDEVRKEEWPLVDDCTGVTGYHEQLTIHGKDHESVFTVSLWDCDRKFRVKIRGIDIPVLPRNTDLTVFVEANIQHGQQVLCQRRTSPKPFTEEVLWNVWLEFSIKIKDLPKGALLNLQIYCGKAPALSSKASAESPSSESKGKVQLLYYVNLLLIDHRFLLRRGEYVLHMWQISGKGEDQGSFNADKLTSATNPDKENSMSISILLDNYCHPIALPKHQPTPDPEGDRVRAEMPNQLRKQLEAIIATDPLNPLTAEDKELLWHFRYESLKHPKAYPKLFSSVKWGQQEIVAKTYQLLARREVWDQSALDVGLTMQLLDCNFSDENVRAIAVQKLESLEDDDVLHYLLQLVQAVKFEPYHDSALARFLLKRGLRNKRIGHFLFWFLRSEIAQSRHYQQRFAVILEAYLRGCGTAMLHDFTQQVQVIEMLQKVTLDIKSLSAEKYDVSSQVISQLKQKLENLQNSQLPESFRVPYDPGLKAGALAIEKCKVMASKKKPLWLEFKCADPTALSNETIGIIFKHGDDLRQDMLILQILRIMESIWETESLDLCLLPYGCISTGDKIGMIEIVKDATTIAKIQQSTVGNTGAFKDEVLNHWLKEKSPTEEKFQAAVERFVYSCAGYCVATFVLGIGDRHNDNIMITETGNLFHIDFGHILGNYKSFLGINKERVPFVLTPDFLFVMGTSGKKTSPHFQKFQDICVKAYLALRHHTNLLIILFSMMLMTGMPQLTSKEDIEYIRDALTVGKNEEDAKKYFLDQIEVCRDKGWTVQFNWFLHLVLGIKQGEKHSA

PI3K α = PI3K α (Homo sapiens, UniProt P42336); assay: PI 3-Kinase (human) HTRF assay, p110α/p85α
Chain of PI3K α (P42336 whole entry): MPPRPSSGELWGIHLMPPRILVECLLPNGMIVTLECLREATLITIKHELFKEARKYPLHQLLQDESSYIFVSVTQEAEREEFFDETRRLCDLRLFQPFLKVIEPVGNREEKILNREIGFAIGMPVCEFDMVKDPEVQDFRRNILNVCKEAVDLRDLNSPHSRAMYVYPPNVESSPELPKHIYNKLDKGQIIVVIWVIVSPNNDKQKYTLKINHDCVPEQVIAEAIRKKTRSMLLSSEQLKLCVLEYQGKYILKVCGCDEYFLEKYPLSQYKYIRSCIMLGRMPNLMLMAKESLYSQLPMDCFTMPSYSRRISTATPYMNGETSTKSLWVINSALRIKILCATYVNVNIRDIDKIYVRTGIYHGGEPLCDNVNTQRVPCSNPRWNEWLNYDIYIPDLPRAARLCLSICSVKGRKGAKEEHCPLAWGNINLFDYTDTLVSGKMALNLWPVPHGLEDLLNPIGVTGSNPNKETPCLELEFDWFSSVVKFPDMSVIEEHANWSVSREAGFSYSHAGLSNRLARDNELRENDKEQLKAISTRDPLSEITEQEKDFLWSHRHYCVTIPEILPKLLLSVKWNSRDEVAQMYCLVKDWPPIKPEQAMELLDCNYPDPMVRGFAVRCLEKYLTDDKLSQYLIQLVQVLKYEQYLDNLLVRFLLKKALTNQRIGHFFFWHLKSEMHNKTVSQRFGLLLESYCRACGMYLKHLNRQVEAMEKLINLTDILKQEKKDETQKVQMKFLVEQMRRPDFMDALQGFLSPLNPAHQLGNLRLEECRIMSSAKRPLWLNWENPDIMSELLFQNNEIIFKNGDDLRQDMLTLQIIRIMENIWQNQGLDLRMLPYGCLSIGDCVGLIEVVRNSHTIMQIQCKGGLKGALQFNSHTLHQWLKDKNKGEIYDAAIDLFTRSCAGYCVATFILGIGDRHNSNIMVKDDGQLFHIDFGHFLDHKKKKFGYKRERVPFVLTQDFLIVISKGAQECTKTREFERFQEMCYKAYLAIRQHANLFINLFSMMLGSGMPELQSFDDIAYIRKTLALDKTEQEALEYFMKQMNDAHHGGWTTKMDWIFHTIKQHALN
Chain of PI3K α (P27986 whole entry partner): as the sequence (P27986 whole entry partner) above

PI3K β = PI3K β (Homo sapiens, UniProt P42338); assay: PI 3-Kinase (human) HTRF assay, p110β/p85α
Chain of PI3K β (P42338 whole entry): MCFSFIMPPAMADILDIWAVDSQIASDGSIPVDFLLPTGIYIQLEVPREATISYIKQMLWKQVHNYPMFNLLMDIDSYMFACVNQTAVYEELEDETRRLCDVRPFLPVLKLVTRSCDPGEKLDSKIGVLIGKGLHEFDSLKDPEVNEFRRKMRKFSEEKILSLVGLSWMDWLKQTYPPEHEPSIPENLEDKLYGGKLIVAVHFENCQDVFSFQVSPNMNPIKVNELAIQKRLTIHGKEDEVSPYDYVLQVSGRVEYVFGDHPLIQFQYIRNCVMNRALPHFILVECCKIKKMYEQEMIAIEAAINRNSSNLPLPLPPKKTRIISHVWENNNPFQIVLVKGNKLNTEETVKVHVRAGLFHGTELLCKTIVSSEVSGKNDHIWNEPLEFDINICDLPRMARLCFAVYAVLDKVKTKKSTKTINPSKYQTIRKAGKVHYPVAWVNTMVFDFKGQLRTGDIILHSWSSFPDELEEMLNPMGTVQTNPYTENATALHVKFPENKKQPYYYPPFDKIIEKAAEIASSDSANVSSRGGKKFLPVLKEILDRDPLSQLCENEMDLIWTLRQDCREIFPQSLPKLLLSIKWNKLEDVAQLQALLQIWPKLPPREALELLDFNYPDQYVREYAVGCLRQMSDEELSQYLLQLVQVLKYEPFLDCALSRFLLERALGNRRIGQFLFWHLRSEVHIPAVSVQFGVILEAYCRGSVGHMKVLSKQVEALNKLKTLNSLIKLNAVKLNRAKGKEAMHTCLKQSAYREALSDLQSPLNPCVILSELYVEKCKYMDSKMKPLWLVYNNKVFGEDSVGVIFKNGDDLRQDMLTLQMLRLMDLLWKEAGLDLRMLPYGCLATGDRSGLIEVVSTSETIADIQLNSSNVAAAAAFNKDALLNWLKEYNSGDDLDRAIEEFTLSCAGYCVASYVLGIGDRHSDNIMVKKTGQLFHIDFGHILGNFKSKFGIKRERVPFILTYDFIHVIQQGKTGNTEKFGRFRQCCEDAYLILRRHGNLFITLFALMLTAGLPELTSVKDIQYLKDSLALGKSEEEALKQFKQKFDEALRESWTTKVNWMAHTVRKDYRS
Chain of PI3K β (P27986 whole entry partner): as the sequence (P27986 whole entry partner) above

mTOR = target: T1, mTOR (Homo sapiens, UniProt P42345); assay: Inhibition assay of mTOR (radiometric or LanthaScreen TR-FRET); type: biochemical; conditions: read-out: mTORC IC50
T1 construct: purchased Invitrogen

MDA-MB-361 = MDA-MB-361 proliferation; type: cell-based; conditions: Homo sapiens
[1] = tested on: MDA-MB-361 (PI3Kα/HER2 carcinoma) tumors; assay: In vivo efficacy in xenogenic mouse model of breast cancer; design: species or system nude mice; conditions: 70 mg/kg Pan-PI3K inhibitor; 60 mg/kg compound A
Method: Blood glucose was monitored periodically following administration of treatment.
Treatment of tumors (MDA-MB-361) with compounds was discontinued on Day 30. Tumors were measured every 2-5 days.

B cell function = B cell function in vivo, antibody production after TNP-Ficoll immunization; conditions: mice immunized with TNP-Ficoll; 70 mg/kg GDC0941; 30, 60 or 120 mg/kg Compound A; 7 days; FIG. 8
Method: Mice were immunized with TNP-Ficoll and treated with 1) vehicle; 2) 70 mg/kg GDC0941; 3) 30 mg/kg Compound A; 4) 60 mg/kg Compound A; or 5) 120 mg/kg Compound A for 7 days. Antibody production was measured as a percentage of control group that were treated with vehicle.

[2] = tested on: anti-TNP antibody production (B cell function); assay: TNP-Ficoll T-cell independent B-cell activation assay; type: in vivo, mice; conditions: 70 mg/kg GDC0941; 30, 60 or 120 mg/kg Compound A; 7 days
Method: To test the effects of the compounds of the present invention in suppressing T cell independent antibody production, the TNP-Ficoll B-cell activation assay is used as described herein. Compounds of the present invention are dissolved in an appropriate vehicle (e.g. 5% 1-methyl-2-pyrrolidinone, 85% polyethylene glycol 400, 10% Solutor). Compounds are administered orally approximately lhr before TNP-Ficoll treatment to 4-10 week old mice. To study the effects of the compounds on B-cell activation, one set of mice are grouped according to the following table:
Four animals in group 1, and eight animals in groups 2 to 7 are euthanized in CO2 2 hours after the last compound administration on day 7. […]
Serum samples are analyzed for anti-TNP antibody titers by ELISA as described herein. […] HRP substrate (200 μl ABTS solution+30% H2O2+10 ml citrate buffer) is added to each well at 100 μl/well, incubated 2-20 minutes in the dark and the amount of anti-TNP IgG3 is determined spectrophotometrically at 405 nm. Similarly, anti-TNP IgM and total anti-TNP Ab are determined using anti-mouse IgM-HRP and anti-mouse Ig-HRP respectively.
Antibody production was measured using ELISA and plotted as a percentage of control group that were treated with vehicle.

marginal zone B cells = assay: Marginal zone B cells in mouse spleen (FACS); conditions: 70 mg/kg Pan-PI3K inhibitor; 60 mg/kg Compound A; spleens 2 hrs after last dose

pIC50 (PI3K δ) | pIC50 (PI3K γ) | pIC50 (PI3K β) | Compound | other results
– | > 6.00 | – | O=C(c1cnc2ccc(-c3ccc(Cl)c(NS(=O)(=O)c4ccc(F)cc4F)c3)cn12)N1CCOCC1 [Compound 461] | –
< 5.00 | > 7.00 | < 5.00 | Nc1nc2cc(-c3ccc4ncc(C(=O)N5CC(N6CC[C@@H](O)C6)C5)n4c3)ccc2o1 [Compound 470] | –
> 5.00 | > 6.00 | – | Nc1nc2cc(-c3ccc4ncc(C(=O)N5CC[C@H](F)C5)n4c3)ccc2o1 [Compound 476] | –
> 6.00 | > 5.00 | > 5.00 | O=C(c1cnc2ccc(-c3ccc4c(Nc5ccccc5)noc4c3)cn12)N1CCOCC1 [Compound 509] | pIC50 (PI3K α): > 7.00; IC50 (MDA-MB-361; PC-3, read-out: PC3 proliferation (nM)*): < 10000 nM
– | > 7.00 | – | [2H]c1c(-c2ccc3ncc(C(=O)N4CCOCC4)n3c2)c([2H])c2nc(N)oc2c1[2H] [Compound 531] | –
< 5.00 | < 5.00 | < 5.00 | CN1CCN(c2cnc3ccc(-c4ccc5nc(N)oc5c4)cn23)CC1 [Compound 542] | pIC50 (PI3K α): < 5.00
> 5.00 | > 7.00 | – | Nc1nc2cc(-c3ccc4ncc(-c5cccnc5)nc4n3)ccc2o1 [Compound 567] | pIC50 (PI3K α): > 7.00; IC50 (MDA-MB-361; MDA-MB-361 cells, Table 4, read-out: MDA-MB-361 proliferation (nM)*): > 10000 nM

Second part, the compound before the results:

Compound | pIC50 (PI3K δ) | pIC50 (PI3K γ) | pIC50 (PI3K β) | other results
Nc1nc2cc(-c3ccc4nccc(-c5ccncc5)c4c3)ccc2o1 [Compound 1] | – | – | – | pIC50 (T47D): > 6.00; IC50 (PC3): < 1000 nM
Nc1nc2cc(-c3ccc4ncc(N[C@H]5CC[C@H](O)CC5)nc4c3)ccc2o1 [Compound 128] | > 7.00 | > 7.00 | > 5.00 | pIC50 (PI3K α): > 7.00
Nc1nc2cc(-c3ccc4ncc(N5CCNC(=O)C5)nc4c3)ccc2o1 [Compound 135] | > 5.00 | – | > 7.00 | –
CN1CCC(N(C)c2ncnc3ccc(-c4ccc5oc(N)nc5c4)cc23)CC1 [Compound 155] | – | > 6.00 | – | –
CC1CN(C(=O)c2cnc3ccc(-c4ccc5oc(N)nc5c4)cn23)CCN1 (centres unmarked) [Compound 164] | – | – | – | pIC50 (T47D): > 6.00
Nc1nc2cc(-c3ccc4ncc(N5CCC(N)CC5)nc4c3)ccc2o1 [Compound 168] | – | > 5.00 | – | –
CN1CCC(NC(=O)c2cnc3ccc(-c4ccc5oc(N)nc5c4)cn23)CC1 [Compound 203] | > 6.00 | > 7.00 | > 7.00 | –
CC(C)[C@H](N)C(=O)N1CCN(c2cnc3ccc(-c4ccc5oc(N)nc5c4)cc3n2)CC1 [Compound 269] | – | > 5.00 | – | –
CC(C)[C@@H](N)C(=O)N1CCN(c2cnc3ccc(-c4ccc5oc(N)nc5c4)cc3n2)CC1 [Compound 270] | – | > 6.00 | – | –
CN1CCN(CCNC(=O)c2cnc3ccc(-c4ccc5oc(N)nc5c4)cn23)CC1 [Compound 306] | – | > 6.00 | – | –
C[C@H]1CN(c2cnc3ccc(-c4ccc5oc(N)nc5c4)cc3n2)CCN1C [Compound 332] | – | > 6.00 | – | –
Nc1nc2cc(-c3ccn4ncc(C(=O)N5CCOCC5)c4c3)cc(Cl)c2o1 [Compound 359] | > 5.00 | > 7.00 | > 6.00 | pIC50 (PI3K α): > 7.00
Nc1nc2cc(-c3ccc4ncc(N5CC[C@H](N6CCOCC6)C5)nc4c3)ccc2o1 [Compound 375] | > 5.00 | > 7.00 | – | –
CN1CCN([C@@H]2CCN(c3cnc4ccc(-c5ccc6oc(N)nc6c5)cc4n3)C2)CC1 [Compound 379] | – | – | – | pIC50 (mTOR): < 5.00
Nc1nc2cc(-c3ccc4ncc(C(=O)N5CC[C@H](n6cccn6)C5)n4c3)ccc2o1 [Compound 478] | – | – | – | PI3K δ IC50 (nM) (PI3K δ): +++ +++
Nc1nc2cc(-c3ccc4ncc(N5CC(N6CCOCC6)C5)nc4n3)ccc2o1 [Compound 604] | – | > 6.00 | > 5.00 | pIC50 (mTOR; Table 4, PI3K α inhibitors): < 5.00
CS(=O)(=O)N1CCN(Cc2cc3nc(-c4cccc5[nH]ncc45)nc(N4CCOCC4)c3s2)CC1 [Pan-PI3K inhibitor, GDC0941, reference compound] | – | – | – | tumor weight in breast cancer model (FIG. 9 left panel) [1]: reduction in tumor weight; B cell function in vivo (antibody production, percentage of vehicle control) (B cell function): blocks B cell function; B cell function in vivo, antibody production after TNP-Ficoll (FIG. 8) [2]: blocks B cell function in vivo; presence (localization/viability) of marginal zone B cells in mouse spleen (FIG. 9 right panel) (marginal zone B cells): reduced presence of MZB cells
